Data on 2 compounds can be found in PMC8437142 (The Journal of physiology, 2021).

The nature of data set [1]: Serum morphine and metabolites by UPLC-MS/MS after s.c. morphine. The following applies: rat, sc, 4 mg/kg.
Data set [2] deals with opioid receptors. The conditions noted are these: ref Lewis et al., 2010; Doyle & Murphy, 2018; cited from earlier work.

With `CN1CC[C@]23c4c5ccc(O)c4O[C@H]2[C@@H](O[C@@H]2O[C@H](C(=O)O)[C@@H](O)[C@H](O)[C@H]2O)C=C[C@H]3[C@H]1C5` [Morphine-6-glucuronide, morphine-6-glucuronide], the concentration at 4.5 h in data set [1] is less than 1 ng/mL.

In the case of `CN1CC[C@]23c4c5ccc(O[C@@H]6O[C@H](C(=O)O)[C@@H](O)[C@H](O)[C@H]6O)c4O[C@H]2[C@@H](O)C=C[C@H]3[C@H]1C5` [Morphine-3-glucuronide, morphine-3-glucuronide], the “affinity for opioid receptors” value in data set [2] is listed as “no affinity”.
